Test results from ChEMBL document CHEMBL1136754, “Mechanism of action of the diazabicyclononanone-type kappa-agonists” (J Med Chem, 2003).

Columns and labels:
Type in all cases: tissue-based
[1] = target: Kappa-type opioid receptor (Rattus norvegicus, UniProt P34975); assay: Binding affinity towards KOR (Opioid receptor kappa 1) using [3H]CI977 as radioligand in rat brain
Mu-type opioid receptor = Mu-type opioid receptor (Rattus norvegicus, UniProt P33535); assay: Binding affinity towards Opioid receptor mu 1 using [3H]naloxone as radioligand in rat brain
[2] = target: Delta-type opioid receptor (Rattus norvegicus, UniProt P33533); assay: Binding affinity towards Opioid receptor delta 1 using [3H]CI-DPDPE as radioligand in rat brain
Sequence of Delta-type opioid receptor (P33533 whole entry): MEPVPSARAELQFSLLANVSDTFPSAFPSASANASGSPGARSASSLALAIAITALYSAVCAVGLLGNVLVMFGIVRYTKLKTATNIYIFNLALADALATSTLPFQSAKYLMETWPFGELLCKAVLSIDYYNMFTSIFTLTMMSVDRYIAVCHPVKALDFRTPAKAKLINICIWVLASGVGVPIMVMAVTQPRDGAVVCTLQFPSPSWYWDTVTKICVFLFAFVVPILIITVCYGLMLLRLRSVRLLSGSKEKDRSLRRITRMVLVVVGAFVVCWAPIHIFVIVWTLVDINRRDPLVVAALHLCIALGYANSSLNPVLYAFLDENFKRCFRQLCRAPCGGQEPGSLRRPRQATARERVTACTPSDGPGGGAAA

Sequence of Mu-type opioid receptor (P33535 whole entry): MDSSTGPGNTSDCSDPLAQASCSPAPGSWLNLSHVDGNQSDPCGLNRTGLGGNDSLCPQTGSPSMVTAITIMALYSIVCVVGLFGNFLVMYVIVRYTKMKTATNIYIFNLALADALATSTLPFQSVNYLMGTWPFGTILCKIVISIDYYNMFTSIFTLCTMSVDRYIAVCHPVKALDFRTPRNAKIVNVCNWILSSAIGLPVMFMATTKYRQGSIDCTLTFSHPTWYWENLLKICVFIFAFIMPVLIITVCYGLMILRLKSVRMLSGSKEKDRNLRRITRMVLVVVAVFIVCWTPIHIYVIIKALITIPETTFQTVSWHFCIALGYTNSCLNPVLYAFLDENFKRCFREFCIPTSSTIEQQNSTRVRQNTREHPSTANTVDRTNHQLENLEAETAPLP
Sequence of Kappa-type opioid receptor (P34975 whole entry): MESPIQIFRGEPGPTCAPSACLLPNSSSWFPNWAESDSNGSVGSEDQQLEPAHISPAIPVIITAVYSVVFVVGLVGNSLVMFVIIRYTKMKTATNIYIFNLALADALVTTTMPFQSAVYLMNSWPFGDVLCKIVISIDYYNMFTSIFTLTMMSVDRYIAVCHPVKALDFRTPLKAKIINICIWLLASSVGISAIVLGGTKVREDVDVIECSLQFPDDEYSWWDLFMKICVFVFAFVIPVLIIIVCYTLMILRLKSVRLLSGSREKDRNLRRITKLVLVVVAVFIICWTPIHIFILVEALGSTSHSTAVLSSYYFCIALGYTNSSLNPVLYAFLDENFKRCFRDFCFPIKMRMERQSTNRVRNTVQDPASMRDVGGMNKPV

For `CN1CC2C(=O)C(C1)C(c1ccccn1)N(C)C2c1ccccn1` (stereo not drawn), which Ki [1] is on record?
The Ki was 0.015 µM.

What about the Ki (Mu-type opioid receptor) of the same compound?
The Ki was > 1 µM.

What about the Ki [2] of the same compound?
The Ki was > 10 µM.
